Results from patent US20250177418A1, “NEUROACTIVE STEROIDS FOR TREATMENT OF GASTROINTESTINAL DISEASES OR CONDITIONS” (Sage Therapeutics, Inc., priority 2022, published 2025).

tested on: patients with major depressive disorder; test: not given; details: MDD patients, meta-analysis; cited from earlier work

Row | SMILES | Rates of gastrointestinal adverse reactions compared to placebo | Tolerability on the gastrointestinal tract among antidepressants
1 | CCN(CC)C(=O)[C@@]1(c2ccccc2)C[C@H]1CN [levomilnacipran] | higher rates | 
2 | CCOc1ccccc1OC(c1ccccc1)C1CNCCO1 (centres unmarked) [reboxetine] | higher rates | 
3 | CN1CCN2c3ncccc3Cc3ccccc3C2C1 (centres unmarked) [mirtazapine] | higher rates | 
4 | COCCCC/C(=N\OCCN)c1ccc(C(F)(F)F)cc1 [fluvoxamine] | higher rates | 
5 | CN(C)CCCC1(c2ccc(F)cc2)OCc2cc(C#N)ccc21 (centres unmarked) [citalopram] | higher rates | 
6 | CN(C)CCC[C@@]1(c2ccc(F)cc2)OCc2cc(C#N)ccc21 [escitalopram] | higher rates | least tolerated
7 | Fc1ccc([C@@H]2CCNC[C@H]2COc2ccc3c(c2)OCO3)cc1 [paroxetine] | higher rates | 
8 | CNCC[C@H](Oc1cccc2ccccc12)c1cccs1 [duloxetine] | higher rates | 
9 | COc1ccc(C(CN(C)C)C2(O)CCCCC2)cc1 (centres unmarked) [venlafaxine] | higher rates | 
10 | COc1ccc2cccc(CCNC(C)=O)c2c1 [agomelatine] | higher rates | 
11 | CC(NC(C)(C)C)C(=O)c1cccc(Cl)c1 (centres unmarked) [bupropion] | higher rates | 
12 | CNCCC(Oc1ccc(C(F)(F)F)cc1)c1ccccc1 (centres unmarked) [fluoxetine] | higher rates | 
13 | Cc1ccc(Sc2ccccc2N2CCNCC2)c(C)c1 [vortioxetine] | higher rates | 
14 | CN[C@H]1CC[C@@H](c2ccc(Cl)c(Cl)c2)c2ccccc21 [sertraline] | higher rates | least tolerated
15 | CN(C)CC(c1ccc(O)cc1)C1(O)CCCCC1 (centres unmarked) [desvenlafaxine] | higher rates | 

tested on: participants with major depressive disorder (MDD); test: Treatment-emergent adverse events (safety), study NCT04476030; format: in vivo, human; details: one patient, approximately 1 hour after Compound (1) 50 mg on Day 7
Procedure: A randomized, double-blind, parallel-group, active/placebo-controlled study (NCT04476030) in participants with major depressive disorder (MDD) was conducted. The study evaluated the efficacy and safety of Compound (1) 50 mg co-initiated with standard-of-care (SOC) antidepressant therapies (ADTs) (Compound (1)+ADT) vs placebo co-initiated with SOC ADT (placebo+ADT) in adults with MDD. Patients were randomized 1:1 to once-daily, blinded Compound (1)+ADT or placebo+ADT for 14 days then continued open-label SOC ADT for 28 more days.
An AE could therefore be any unfavorable and unintended sign (including an abnormal laboratory finding), symptom or disease temporally associated with the use of a medicinal (investigational) product whether or not related to the medicinal (investigational) product. In clinical studies, an AE could include an undesirable medical condition occurring at any time, including baseline or washout periods, even if no study treatment had been administered.
A treatment emergent adverse event (TEAE) was defined as an AE with onset after the start of investigational product (IP; Compound (1) or placebo), or any worsening of a pre-existing medical condition/AE with onset after the start of IP and throughout the study. The term IP included any Sage IP, a comparator, or a placebo administered in a clinical study. […]

Row | SMILES | Investigator-assessed relationship of serious TEAE (seizure-like phenomena) to study drug
16 | C[C@@]1(O)CC[C@H]2[C@H](CC[C@@H]3[C@@H]2CC[C@]2(C)[C@@H](C(=O)Cn4cc(C#N)cn4)CC[C@@H]32)C1 [Compound (1), 1-(2-((3R,5R,8R,9R,10S,13S,14S,17S)-3-hydroxy-3,13-dimethylhexadecahydro-1H-cyclopenta[a]phenanthren-17-yl)-2-oxoethyl)-1H-pyrazole-4-carbonitrile] | related

tested on: not given; test: not given; details: compared to SSRIs and duloxetine; cited from earlier work

Row | SMILES | Rates of nausea and vomiting
17 | COc1ccc(C(CN(C)C)C2(O)CCCCC2)cc1 (centres unmarked) [venlafaxine] | higher rates

same assay, conditions: compared to other SSRIs and venlafaxine; cited from earlier work

Row | SMILES | Incidence of diarrhea
18 | CN[C@H]1CC[C@@H](c2ccc(Cl)c(Cl)c2)c2ccccc21 [sertraline] | higher incidence
